Results taken from US10906901B2, “Crystal form and salt form of N-phenyl-2-aminopyrimidine compound, and preparation method therefor” (HAINAN YUEKANG BIOMEDICINES CO., LTD., priority 2017, dated 2021).
≈ marks a conversion by molar mass, not a printed value.

Assays:
[1] = Accelerated stability test; type: physicochemical
[2] = system: cells with single or double EGFR mutations; conditions: described in Chinese Patent Application 201610679161.7; cited from earlier work
[3] = Dynamic Vapor Sorption (DVS); type: physicochemical
physchem = conditions: thermodynamic from solid
Description: Subsequently, 2 mL of buffer solutions at pH 1.2 and 6.8 were added respectively to prepare a saturated solution. The above resulting suspensions were placed in a shaker and shaken at a speed of 200 rpm for 2 hours at 25° C. The resulting mixtures were filtered, and the filtrates were diluted by an appropriate multiple and analyzed by HPLC to determine the solubility of each sample in different media.

EGFR = EGFR (Homo sapiens, UniProt P00533); conditions: described in Chinese Patent Application 201610679161.7; cited from earlier work
Chain of EGFR (P00533 25-1210): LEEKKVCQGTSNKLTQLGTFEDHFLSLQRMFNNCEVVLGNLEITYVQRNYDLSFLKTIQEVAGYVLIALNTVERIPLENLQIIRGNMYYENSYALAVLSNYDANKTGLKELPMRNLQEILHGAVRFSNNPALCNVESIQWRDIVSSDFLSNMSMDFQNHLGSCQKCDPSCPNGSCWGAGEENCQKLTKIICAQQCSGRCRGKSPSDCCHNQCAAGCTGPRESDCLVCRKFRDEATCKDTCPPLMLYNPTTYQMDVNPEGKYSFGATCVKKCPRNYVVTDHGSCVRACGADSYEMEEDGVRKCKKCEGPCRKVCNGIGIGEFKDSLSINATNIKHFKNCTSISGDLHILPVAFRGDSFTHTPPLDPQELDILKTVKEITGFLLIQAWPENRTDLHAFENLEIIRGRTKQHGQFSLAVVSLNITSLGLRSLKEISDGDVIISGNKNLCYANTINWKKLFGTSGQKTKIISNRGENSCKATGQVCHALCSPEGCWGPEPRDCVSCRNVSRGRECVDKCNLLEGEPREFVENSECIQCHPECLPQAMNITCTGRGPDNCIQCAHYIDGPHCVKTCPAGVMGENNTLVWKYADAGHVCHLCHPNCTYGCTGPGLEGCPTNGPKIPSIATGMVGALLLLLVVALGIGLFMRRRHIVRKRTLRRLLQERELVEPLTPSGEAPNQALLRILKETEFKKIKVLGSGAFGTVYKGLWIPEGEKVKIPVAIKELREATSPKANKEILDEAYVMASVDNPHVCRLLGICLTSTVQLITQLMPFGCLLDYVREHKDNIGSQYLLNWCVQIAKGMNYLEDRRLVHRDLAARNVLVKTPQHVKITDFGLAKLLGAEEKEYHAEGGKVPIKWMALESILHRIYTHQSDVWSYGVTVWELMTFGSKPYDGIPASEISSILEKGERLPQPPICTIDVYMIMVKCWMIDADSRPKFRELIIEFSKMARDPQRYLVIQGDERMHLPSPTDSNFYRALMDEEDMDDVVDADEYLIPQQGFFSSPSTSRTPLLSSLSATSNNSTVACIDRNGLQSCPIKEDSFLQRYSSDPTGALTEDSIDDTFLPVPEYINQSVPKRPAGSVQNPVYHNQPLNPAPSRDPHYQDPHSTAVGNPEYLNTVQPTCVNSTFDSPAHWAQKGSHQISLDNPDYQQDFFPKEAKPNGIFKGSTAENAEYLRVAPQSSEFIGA

[4] = Bioavailability assay, single oral dose of capsules in Beagle dogs; conditions: single oral dose 3 mg/kg, crystalline powders in capsules

Row | crystal structure after the accelerated stability test [1] | chemical stability ([1]; when avoiding the light) | hygroscopicity ([3]; DVS curve at 25° C.) | moisture absorption ([3]; at 80% RH) [%] | solubility at 2 h (physchem; buffer solution pH 1.2, 25 °C, pH 1.2, simulated gastric fluid) [mg/mL] | solubility at 2 h (physchem; buffer solution pH 6.8, 25 °C, pH 6.8, aqueous buffer) [mg/mL] | Compound | inhibitory activity on cells with single or double EGFR mutations [2] | inhibitory activity against EGFR (EGFR) | selectivity to EGFR mutants (EGFR) | AUC(0-t) [4] [ng·h/mL] | Cmax [4] [ng/mL] | peak time Tmax [4] [h]
1 | does not change | good chemical stability | almost no hygroscopicity | 0.934 | 38.1 (≈ 76.1 mM) | 6.75 (≈ 13.5 mM) | C=CC(=O)Nc1cc(Nc2nccc(-c3cnc4c(C)cccn34)n2)c(OC)cc1N(C)CCN(C)C [Compound 1, N-(2-methoxy-4-(N^1,N^2,N^2-trimethyl-1,2-ethylenediamine-1-yl)-5-acrylamidephenyl)-4-(8-methylimidazo[1,2-a]pyridin-3-yl)pyrimidin-2-amine] | strong inhibitory activity | significant inhibitory activity | high selectivity |  |  | 
2 |  |  |  |  |  |  | Benzoate |  |  |  | 856.41 | 203.15 | 2
